pIC50: −log10 of the molar value.
Legend:
[1] = target: T1, Human COX II (Homo sapiens, UniProt P35354); assay: COX II activity in vitro (PGE2 ELISA, recombinant enzyme); format: biochemical; details: arachidonic acid 10 μM, pre-incubation 10-20 minutes; read-out: Human COX II ID50
T1 construct: A 2.0 kb fragment containing the coding region of either human or murine COX-I or human or murine COX-II; made in house; host or cells: SF9 insect cells (recombinant baculovirus, transfer vector pVL1393)
T1 sequence (P35354 18-604): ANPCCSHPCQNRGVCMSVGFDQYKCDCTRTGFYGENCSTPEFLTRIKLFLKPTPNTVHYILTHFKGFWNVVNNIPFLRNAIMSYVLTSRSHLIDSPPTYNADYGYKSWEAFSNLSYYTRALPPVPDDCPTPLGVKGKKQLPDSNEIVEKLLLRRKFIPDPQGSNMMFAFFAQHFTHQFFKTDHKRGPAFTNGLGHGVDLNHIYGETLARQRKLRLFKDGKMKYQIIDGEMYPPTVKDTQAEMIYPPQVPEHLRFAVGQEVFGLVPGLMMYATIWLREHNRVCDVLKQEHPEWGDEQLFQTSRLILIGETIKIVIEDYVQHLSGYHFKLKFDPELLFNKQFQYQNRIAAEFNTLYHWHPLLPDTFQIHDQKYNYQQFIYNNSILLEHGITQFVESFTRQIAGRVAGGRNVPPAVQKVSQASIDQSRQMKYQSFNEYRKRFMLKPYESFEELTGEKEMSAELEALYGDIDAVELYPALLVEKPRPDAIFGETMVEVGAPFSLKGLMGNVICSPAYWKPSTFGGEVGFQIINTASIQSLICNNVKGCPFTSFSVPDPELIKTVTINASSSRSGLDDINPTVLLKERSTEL
Method: The COX II inhibition activity of the compounds of this invention illustrated in the Examples was determined by the following methods.
(§1) A 2.0 kb fragment containing the coding region of either human or murine COX-I or human or murine COX-II was cloned into a BamH1 site of the baculovirus transfer vector pVL1393 (Invitrogen) to generate the baculovirus transfer vectors for COX-I and COX-II in a manner similar to the method of D. R. O'Reilly et al (Baculovirus Expression Vectors: A Laboratory Manual (1992)). Recombinant baculoviruses were isolated by transfecting 4 μg of baculovirus transfer vector DNA into SF9 insect cells ([…]) along with 200 ng of linearized baculovirus plasmid DNA by the calcium phosphate method. See M. D. Summers and G. E. Smith, A Manual of Methods for Baculovirus Vectors and Insect Cell Culture Procedures, Texas Agric. Exp. Station Bull. 1555 (1987). Recombinant viruses were purified by three rounds of plaque purification and high titer (10E7-10E8 pfu/ml), stocks of virus were prepared. For large scale production, SF9 insect cells were infected in 10 liter fermentors (0.5×10^6/ml) with the recombinant baculovirus stock such that the multiplicity of infection was 0.1. After 72 hours the cells were centrifuged and the cell pellet homogenized in Tris/Sucrose (50 mM: 25%, pH 8.0) containing 1% 3-[(3-cholamidopropyl)dimethylammonio]-1-propanesulfonate (CHAPS). The homogenate was centrifuged at 10,000×G for 30 minutes, and the resultant supernatant was stored at −80° C. before being assayed for COX activity.
(§2) COX activity was assayed as PGE2 formed/μg protein/time using an ELISA to detect the prostaglandin released. CHAPS-solubilized insect cell membranes containing the appropriate COX enzyme were incubated in a potassium phosphate buffer (50 mM, pH 8.0) containing epinephrine, phenol, and heme with the addition of arachidonic acid (10 μM). Compounds were pre-incubated with the enzyme for 10-20 minutes prior to the addition of arachidonic acid. Any reaction between the arachidonic acid and the enzyme was stopped after ten minutes at 37° C./room temperature by transferring 40 μl of reaction mix into 160 μl ELISA buffer and 25 μM indomethacin. The PGE2 formed was measured by standard ELISA technology (Cayman Chemical).

[2] = target: T2, Human COX I (Homo sapiens, UniProt P23219); assay: COX I activity in vitro (PGE2 ELISA, recombinant enzyme); format: biochemical; details: arachidonic acid 10 μM, pre-incubation 10-20 minutes; read-out: Human COX I ID50
T2 construct: A 2.0 kb fragment containing the coding region of either human or murine COX-I or human or murine COX-II; made in house; host or cells: SF9 insect cells (recombinant baculovirus, transfer vector pVL1393)
T2 sequence (P23219 24-599): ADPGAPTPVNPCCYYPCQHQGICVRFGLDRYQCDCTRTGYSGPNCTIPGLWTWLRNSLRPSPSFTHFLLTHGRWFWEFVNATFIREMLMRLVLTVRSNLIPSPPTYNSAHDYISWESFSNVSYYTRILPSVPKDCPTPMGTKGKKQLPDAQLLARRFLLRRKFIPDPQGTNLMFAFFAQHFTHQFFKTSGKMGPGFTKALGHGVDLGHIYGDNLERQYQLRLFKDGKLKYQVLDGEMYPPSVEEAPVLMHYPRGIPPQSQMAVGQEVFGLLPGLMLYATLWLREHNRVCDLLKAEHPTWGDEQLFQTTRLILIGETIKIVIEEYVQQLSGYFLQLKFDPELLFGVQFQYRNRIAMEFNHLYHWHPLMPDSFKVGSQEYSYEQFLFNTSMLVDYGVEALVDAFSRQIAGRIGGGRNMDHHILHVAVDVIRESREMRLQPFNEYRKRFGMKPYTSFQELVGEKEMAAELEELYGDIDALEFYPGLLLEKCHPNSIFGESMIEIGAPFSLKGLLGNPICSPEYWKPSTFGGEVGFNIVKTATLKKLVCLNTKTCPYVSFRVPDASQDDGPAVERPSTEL
Method: as §1, §2

pIC50 [1]	pIC50 [2]	melting point	Compound
5.34	< 4.00	–	Cc1nc(-c2ccc(S(C)(=O)=O)cc2)c(-c2ccc(F)cc2)[nH]1 [Example 6, 5-(4-Fluorophenyl)-2-methyl-4-(4-methylsulfonylphenyl)-1H-imidazole]
–	5.68	155 to 156 °C	CS(=O)(=O)c1ccc(-c2nc(SCc3ccccc3)[nH]c2-c2ccc(F)cc2)cc1 [Example 8, 2-Benzylthio-5-(4-fluorophenyl)-4-[4-(methylsulfonyl)phenyl]-1H-imidazole]
6.40	4.98	–	CS(=O)(=O)c1ccc(-c2nc(C(F)(F)F)[nH]c2-c2ccc(Cl)cc2)cc1 [Example 11, 5-(4-Chlorophenyl)-4-[4-(methylsulfonyl)phenyl]-2-(trifluoromethyl)-1H-imidazole]
5.89	< 4.00	–	CS(=O)(=O)c1ccc(-c2nc(C(F)(F)F)[nH]c2-c2ccccc2Cl)cc1 [Example 12, 5-(2-Chlorophenyl)-4-[4-(methylsulfonyl)phenyl]-2-(trifluoromethyl)-1H-imidazole]
–	5.02	–	CS(=O)(=O)c1ccc(-c2nc(C(F)(F)F)[nH]c2-c2ccc(Cl)c(Cl)c2)cc1 [Example 13, 5-(3,4-Dichlorophenyl)-4-[4-(methylsulfonyl)phenyl]-2-(trifluoromethyl)-1H-imidazole]
5.54	5.25	–	COc1ccc(-c2[nH]c(C(F)(F)F)nc2-c2ccc(S(C)(=O)=O)cc2)cc1 [Example 15, 5-(4-Methoxyphenyl)-4-[4-(methylsulfonyl)phenyl]-2-(trifluoromethyl)-1H-imidazole]
–	4.97	259 to 260 °C	NS(=O)(=O)c1ccc(-c2nc(C(F)(F)F)[nH]c2-c2ccc(F)cc2)cc1 [Example 21, 4-[5-(4-Fluorophenyl)-2-(trifluoromethyl)-1H-imidazol-4-yl]benzenesulfonamide]
–	–	221 to 224 °C	COc1ccc(-c2nc(C(F)(F)F)[nH]c2-c2ccc(S(C)(=O)=O)cc2)cc1OC [Example 41, 4-(3,4-Dimethoxyphenyl)-5-[4-(methylsulfonyl)phenyl]-2-(trifluoromethyl)-1H-imidazole]
–	–	265 to 267 °C	COc1ccc(-c2nc(C(F)(F)F)[nH]c2-c2ccc(S(C)(=O)=O)cc2)cc1C [Example 42, 4-(4-Methoxy-3-methylphenyl)-5-[4-(methylsulfonyl)phenyl]-2-(trifluoromethyl)-1H-imidazole]
–	–	193 to 195 °C	Cn1c(C(F)(F)F)nc(-c2ccc(F)cc2)c1-c1ccc(S(C)(=O)=O)cc1 [Example 45, 4-(4-Fluorophenyl)-1-methyl-5-[4-(methylsulfonyl)phenyl]-2-(trifluoromethyl)-1H-imidazole]
–	–	255 to 257 °C	Cc1cc(C)cc(-c2[nH]c(C(F)(F)F)nc2-c2ccc(S(C)(=O)=O)cc2)c1 [Example 46, 5-(3,5-Dimethylphenyl)-4-[4-(methylsulfonyl)phenyl]-2-(trifluoromethyl)-1H-imidazole]
–	–	265 to 267 °C	COc1c(C)cc(-c2[nH]c(C(F)(F)F)nc2-c2ccc(S(C)(=O)=O)cc2)cc1C [Example 52, 5-(3,5-Dimethyl-4-methoxyphenyl)-4-[4-(methylsulfonyl)phenyl]-2-(trifluoromethyl)-1H-imidazole]
–	–	260 to 262 °C	Cc1cc(Cl)cc(-c2[nH]c(C(F)(F)F)nc2-c2ccc(S(C)(=O)=O)cc2)c1 [Example 54, 5-(3-Chloro-5-methylphenyl)-4-[-(methylsulfonyl)phenyl]-2-(trifluoromethyl)-1H-imidazole]
–	–	251 to 252 °C	Cc1ccc(-c2[nH]c(C(F)(F)F)nc2-c2ccc(S(C)(=O)=O)cc2)cc1F [Example 56, 5-(3-Fluoro-4-methylphenyl)-4-[4-(methylsulfonyl)phenyl]-2-(trifluoromethyl)-1H-imidazole]
–	–	288 to 291 °C	COc1ccc(-c2[nH]c(C(F)(F)F)nc2-c2ccc(S(C)(=O)=O)cc2)cc1Cl [Example 57, 5-(3-Chloro-4-methoxyphenyl)-4-[4-(methylsulfonyl)phenyl]-2-(trifluoromethyl)-1H-imidazole]
–	–	279 to 284 °C	Cc1ccc(-c2[nH]c(C(F)(F)F)nc2-c2ccc(S(C)(=O)=O)cc2)cc1C [Example 61]
–	–	202 to 208 °C	COc1cccc(-c2[nH]c(C(F)(F)F)nc2-c2ccc(S(C)(=O)=O)cc2)c1 [Example 65, 5-(3-Methoxyphenyl)-4-[4-(methylsulfonyl)phenyl]-2-(trifluoromethyl)-1H-imidazole]
–	–	225 to 229 °C	CS(=O)(=O)c1ccc(-c2nc(C(F)(F)F)[nH]c2-c2cccc(F)c2)cc1 [Example 66, 5-(3-Fluorophenyl)-4-[4-(methylsulfonyl)phenyl]-2-(trifluoromethyl)-1H-imidazole]
–	–	180 to 190 °C	Cc1ccccc1-c1[nH]c(C(F)(F)F)nc1-c1ccc(S(C)(=O)=O)cc1 [Example 67, 5-(2-Methylphenyl)-4-[4-(methylsulfonyl)phenyl]-2-(trifluoromethyl)-1H-imidazole]
–	–	224 to 226 °C	CS(=O)(=O)c1ccc(-c2nc(C(F)(F)F)[nH]c2-c2cccc(Cl)c2)cc1 [Example 68, 5-(3-Chlorophenyl)-4-[4-(methylsulfonyl)phenyl]-2-(trifluoromethyl)-1H-imidazole]
–	–	250 to 253 °C	CS(=O)(=O)c1ccc(-c2nc(C(F)(F)F)[nH]c2C2CCCCC2)cc1 [Example 69, 5-(Cyclohexyl)-4-[4-(methylsulfonyl)phenyl]-2-(trifluoromethyl)-1H-imidazole]
–	–	261 to 264 °C	Cc1cc(-c2[nH]c(C(F)(F)F)nc2-c2ccc(S(C)(=O)=O)cc2)ccc1Cl [Example 71, 5-(4-Chloro-3-methylphenyl)-4-[4-(methylsulfonyl)phenyl]-2-(trifluoromethyl)-1H-imidazole]
–	–	273 to 275 °C	Cc1ccc(-c2[nH]c(C(F)(F)F)nc2-c2ccc(S(C)(=O)=O)cc2)cc1Cl [Example 73, 5-(3-Chloro-4-methylphenyl)-4-[4-(methylsulfonyl)phenyl]-2-(trifluoromethyl)-1H-imidazole]
–	–	210 to 212 °C	CS(=O)(=O)c1ccc(-c2nc(C(F)(F)F)[nH]c2C2CCCC2)cc1 [Example 75, 5-(Cyclopentyl)-4-[4-(methylsulfonyl)phenyl]-2-(trifluoromethyl)-1H-imidazole]
–	–	230 to 232 °C	CS(=O)(=O)c1ccc(-c2nc(C(F)(F)F)[nH]c2-c2ccsc2)cc1 [Example 76, 4-[4-(Methylsulfonyl)phenyl]-5-(3-thiophenyl)-2-(trifluoromethyl)-1H-imidazole]
–	–	192 to 196 °C	Cc1c(F)cccc1-c1[nH]c(C(F)(F)F)nc1-c1ccc(S(C)(=O)=O)cc1 [Example 77, 5-(3-Fluoro-2-methylphenyl)-4-[4-(methylsulfonyl)phenyl]-2-(trifluoromethyl)-1H-imidazole]
–	–	233 to 234 °C	COc1cc(-c2[nH]c(C(F)(F)F)nc2-c2ccc(S(C)(=O)=O)cc2)ccc1Cl [Example 78, 5-(4-Chloro-3-methoxyphenyl)-4-[4-(methylsulfonyl)phenyl]-2-(trifluoromethyl)-1H-imidazole]
–	–	263.2 °C	CS(=O)(=O)c1ccc(-c2nc(C(=O)Cc3ccccc3)[nH]c2-c2ccc(F)cc2)cc1 [Example 86, 1-[5-(4-Fluorophenyl)-4-[4-(methylsulfonyl)phenyl]-1H-imidazol-2-yl]-2-phenylethanone]
